Where “and” joins values, the source holds several entries; their conditions need not be identical. Equal values may be shown once. Entries after “also recorded” stand apart in the source; their conditions may differ.
Columns and labels:
[1] = target: T1, GUS activity in live E. coli cells (Escherichia coli, UniProt P05804); assay: GUS activity in live E. coli cells; format: cell-based; settings: E. coli cells (OD600 = 1.89) treated for 30 min, then GUS activity measured
T1 construct: endogenous in cells
T1 sequence (P05804 whole entry): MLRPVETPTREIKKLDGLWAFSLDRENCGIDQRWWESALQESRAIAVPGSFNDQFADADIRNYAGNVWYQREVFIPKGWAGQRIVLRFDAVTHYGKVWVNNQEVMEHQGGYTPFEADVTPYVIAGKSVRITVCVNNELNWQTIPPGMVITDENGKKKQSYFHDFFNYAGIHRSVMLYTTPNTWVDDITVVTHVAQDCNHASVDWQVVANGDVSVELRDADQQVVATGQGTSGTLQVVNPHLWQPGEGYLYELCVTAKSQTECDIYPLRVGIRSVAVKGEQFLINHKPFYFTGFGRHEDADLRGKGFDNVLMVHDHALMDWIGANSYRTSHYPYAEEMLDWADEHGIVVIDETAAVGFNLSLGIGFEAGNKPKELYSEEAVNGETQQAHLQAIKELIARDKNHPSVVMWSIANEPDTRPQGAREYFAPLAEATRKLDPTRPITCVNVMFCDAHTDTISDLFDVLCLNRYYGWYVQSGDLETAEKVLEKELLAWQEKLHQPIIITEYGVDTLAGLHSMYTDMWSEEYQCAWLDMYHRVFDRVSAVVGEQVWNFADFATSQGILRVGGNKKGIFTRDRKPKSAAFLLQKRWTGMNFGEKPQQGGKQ
Procedure: To examine if inhibitors 2–4 could inhibit GUS activity in vivo, E. coli cells (OD600 = 1.89) were treated with each of 2–4 for 30 min, after which GUS activity was measured. […]; 3, 18.6 nM; and 4, 3.69 nM (Supplementary Fig. 9a). […]. […] Additionally, to evaluate cell viability, E. coli cultures were treated with ampicillin (positive control), DMSO, or inhibitors 2–4 (100 μM) for 6 h.
Supplementary Figure 9 Inhibitors 2–4 sho w in hi biti on ag ai n st G US acti vity in l i ve E. co li cell s. (a) GUS activity was measured in live E. coli. Af t e r E. coli were incubated with DMSO or an inhibitor ( 2–4), GUS activity was measured using 4-methylumbelliferyl-β-glucuronide as the substrate. The release of fluorescent 4-methylumbelliferone was detected at 445 nm (excitation, 345 nm). Compared with the negative c ont rol (DMSO ), […]
[…]. (b) Colony formation assay. None of the inhibitors affected bacterial growth. As a negative control, E. coli cells were incubated with ampicillin (100 μg/mL). Results are expressed as the mean of triplicate samples ± SEM.
(1 picture or pasted object on this page, not shown here)

[2] = target: LgGUS (Lactobacillus gasseri GUS) (Lactobacillus gasseri, UniProt Q9AHJ8); assay: GUS inhibition assay, hydrolysis of 4-methylumbelliferyl-β-glucuronide, LgGUS; format: biochemical; parameters: GUS activity (hydrolysis rate of MUG) / 1/v: unit not given here; settings: for Ki: LgGUS, 50 mM sodium acetate pH 4.5, 37 °C
LgGUS (Lactobacillus gasseri GUS), sequence (Q9AHJ8 1-598): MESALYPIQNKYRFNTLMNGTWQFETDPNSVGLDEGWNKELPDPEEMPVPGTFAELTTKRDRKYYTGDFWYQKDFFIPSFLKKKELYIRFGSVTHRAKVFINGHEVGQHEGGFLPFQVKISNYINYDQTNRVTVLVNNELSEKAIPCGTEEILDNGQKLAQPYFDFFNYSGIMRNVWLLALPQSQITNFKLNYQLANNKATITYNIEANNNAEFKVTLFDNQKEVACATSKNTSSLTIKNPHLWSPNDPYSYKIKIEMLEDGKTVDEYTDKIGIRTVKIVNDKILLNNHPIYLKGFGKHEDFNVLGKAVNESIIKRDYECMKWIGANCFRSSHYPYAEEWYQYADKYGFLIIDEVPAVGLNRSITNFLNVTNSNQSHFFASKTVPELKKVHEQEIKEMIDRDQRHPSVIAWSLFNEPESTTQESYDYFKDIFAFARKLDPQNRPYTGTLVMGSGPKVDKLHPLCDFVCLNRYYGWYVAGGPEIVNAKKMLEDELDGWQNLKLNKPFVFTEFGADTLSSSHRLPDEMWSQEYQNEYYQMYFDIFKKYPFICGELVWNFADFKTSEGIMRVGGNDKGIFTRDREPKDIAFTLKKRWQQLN

[3] = parameters: method as in PMID 18537837; settings: endocyclic amine; cited from earlier work
[4] = tested on: BALB/c mice; assay: In vivo diarrhea test (CPT-11); parameters: species or system mouse; settings: BALB/c mice, 10 days
[5] = tested on: GM637 non-cancerous human fibroblasts; assay: In vitro cytotoxicity, [3H]thymidine incorporation, GM637; format: cell-based; settings: GM637 cells; 0.001–100 μM for 24 h
[6] = tested on: H184B5F5/M10 non-cancerous human mammary epithelial cells; assay: In vitro cytotoxicity, [3H]thymidine incorporation, H184B5F5/M10; format: cell-based; settings: 0.001–100 μM for 24 h
[7] = tested on: intestinal bacterial GUSs; assay: In vivo imaging of GUS activity (FDGiCu probe); parameters: species or system mouse; settings: BALB/c mice; oral gavage of inhibitor, then 500 µg FDGiCu intravenously
Procedure: . […] The mice were then sacrificed and the intestines removed. […] In addition, we performed real-time in vivo gastrointestinal inhibition of bacterial GUSs using whole-body in vivo imaging (Fig. 4a and Supplementary Figs. 11, 12). The mice were gavaged in the same manner as described above. Following the final gavage, 500 µg of FDGiCu (fluorescein-di-β-D-glucuronide as a non-fluorescent probe) was injected intravenously. Upon digestion by intestinal bacterial GUSs, FDGiCu is hydrolyzed to produce fluorescein (as the hydrolyzed product) that can be detected as fluorescence in the intestinal region. […]. Mice were treated for 10 days. […]
Mice were given 3 via oral gavage. […] The hydrolysis product (fluorescein) generated in the gut was quantified over a 2 h period by in vivo imaging (excitation 465 nm, emission 520 nm). The maximum fluorescein fluorescence was observed 60 min after injection of vehicle control. At 2 h post injection, most of the FDGiCu has been excreted and thus fluorescence is reduced. The region of interest (ROI) was analyzed with Living Image Software. b Effect of inhibitor 3 to protect against diarrhea caused by CPT-11. Diarrhea severity was scored as described in methods. […] The intensity of hydrolyzed fluorescein was assessed by in vivo imaging system (Caliper Life Sciences) and quantified as GUS activity. […]

[8] = tested on: BALB/c mice; assay: Colon histology (hematoxylin and eosin) after oral gavage; format: in vivo, mouse; settings: female BALB/c mice; oral gavage for 5 days; 3 at 37.5 mg per kg body weight, ASN03273363 at 65 mg
[9] = [Inhibitor 2] = 10 μM, [MUG] 0.0375 mM
[10] = [Inhibitor 2] = 10 μM, [MUG] 0.075 mM
[11] = [Inhibitor 2] = 10 μM, [MUG] 0.15 mM
[12] = [Inhibitor 2] = 10 μM, [MUG] 0.3 mM
[13] = [Inhibitor 2] = 20 μM, [MUG] 0.0375 mM
[14] = [Inhibitor 2] = 20 μM, [MUG] 0.075 mM
[15] = [Inhibitor 2] = 20 μM, [MUG] 0.15 mM
[16] = [Inhibitor 2] = 20 μM, [MUG] 0.3 mM
[17] = [Inhibitor 2] = 40 μM, [MUG] 0.0375 mM
[18] = [Inhibitor 2] = 40 μM, [MUG] 0.075 mM
[19] = [Inhibitor 2] = 40 μM, [MUG] 0.15 mM
[20] = [Inhibitor 2] = 40 μM, [MUG] 0.3 mM
[21] = [Inhibitor 2] = 80 μM, [MUG] 0.0375 mM
[22] = [Inhibitor 2] = 80 μM, [MUG] 0.075 mM
[23] = [Inhibitor 2] = 80 μM, [MUG] 0.15 mM
[24] = [Inhibitor 2] = 80 μM, [MUG] 0.3 mM
[25] = [Inhibitor 3] = 0.5 μM, [MUG] 0.0375 mM
[26] = [Inhibitor 3] = 0.5 μM, [MUG] 0.075 mM
[27] = [Inhibitor 3] = 0.5 μM, [MUG] 0.15 mM
[28] = [Inhibitor 3] = 0.5 μM, [MUG] 0.3 mM
[29] = [Inhibitor 3] = 1 μM, [MUG] 0.0375 mM
[30] = [Inhibitor 3] = 1 μM, [MUG] 0.075 mM
[31] = [Inhibitor 3] = 1 μM, [MUG] 0.15 mM
[32] = [Inhibitor 3] = 1 μM, [MUG] 0.3 mM
[33] = [Inhibitor 3] = 2 μM, [MUG] 0.0375 mM
[34] = [Inhibitor 3] = 2 μM, [MUG] 0.075 mM
[35] = [Inhibitor 3] = 2 μM, [MUG] 0.15 mM
[36] = [Inhibitor 3] = 2 μM, [MUG] 0.3 mM
[37] = [Inhibitor 3] = 4 μM, [MUG] 0.0375 mM
[38] = [Inhibitor 3] = 4 μM, [MUG] 0.075 mM
[39] = [Inhibitor 3] = 4 μM, [MUG] 0.15 mM
[40] = [Inhibitor 3] = 4 μM, [MUG] 0.3 mM

CCC[C@@H]1NC[C@@H](O)[C@H](O)[C@H]1C(=O)O [Inhibitor 2, C6-propyl UIFG]
IC50 [1]: 1200 nM | Ki [2]: 18800 ± 3920 nM | 1/v [2, 9]: 0.2959 and 0.2974 and 0.2686 | GUS activity (hydrolysis rate of MUG) [2, 9]: 4192.53 and 4171.53 and 4614.39 | 1/v [2, 10]: 0.2107 and 0.1906 and 0.2077 | GUS activity (hydrolysis rate of MUG) [2, 10]: 5869.97 and 6487.03 and 5954.69 | 1/v [2, 11]: 0.1628 and 0.149 and 0.1679 | GUS activity (hydrolysis rate of MUG) [2, 11]: 7584.59 and 8286.19 and 7358.86 | 1/v [2, 12]: 0.1383 and 0.1264 and 0.1356 | GUS activity (hydrolysis rate of MUG) [2, 12]: 8920.98 and 9760.49 and 9099.17 | 1/v [2, 13]: 0.3501 and 0.314 and 0.3449 | GUS activity (hydrolysis rate of MUG) [2, 13]: 3549.69 and 3952.79 and 3602.4 | 1/v [2, 14]: 0.2306 and 0.2185 and 0.2316 | GUS activity (hydrolysis rate of MUG) [2, 14]: 5367.33 and 5663.13 and 5345.77 | 1/v [2, 15]: 0.1785 and 0.1636 and 0.1746 | GUS activity (hydrolysis rate of MUG) [2, 15]: 6921.34 and 7548.25 and 7076.25 | 1/v [2, 16]: 0.1408 and 0.1323 and 0.1394 | GUS activity (hydrolysis rate of MUG) [2, 16]: 8767.09 and 9326.73 and 8851.1 | 1/v [2, 17]: 0.4229 and 0.3884 and 0.4078 | GUS activity (hydrolysis rate of MUG) [2, 17]: 2945.2 and 3203.76 and 3052.97 | 1/v [2, 18]: 0.2757 and 0.2635 and 0.2787 | GUS activity (hydrolysis rate of MUG) [2, 18]: 4496.55 and 4702.63 and 4448.51 | 1/v [2, 19]: 0.1987 and 0.186 and 0.1977 | GUS activity (hydrolysis rate of MUG) [2, 19]: 6224 and 6644.75 and 6252.92 | 1/v [2, 20]: 0.1513 and 0.1407 and 0.1527 | GUS activity (hydrolysis rate of MUG) [2, 20]: 8157.58 and 8770.43 and 8083.43 | 1/v [2, 21]: 0.6318 and 0.5917 and 0.6372 | GUS activity (hydrolysis rate of MUG) [2, 21]: 1984.8 and 2116.68 and 1968.46 | 1/v [2, 22]: 0.3742 and 0.3532 and 0.3763 | GUS activity (hydrolysis rate of MUG) [2, 22]: 3323.3 and 3518.37 and 3305.44 | 1/v [2, 23]: 0.2434 and 0.2308 and 0.2421 | GUS activity (hydrolysis rate of MUG) [2, 23]: 5087.86 and 5362.93 and 5115.03 | 1/v [2, 24]: 0.1723 and 0.1599 and 0.1688 | GUS activity (hydrolysis rate of MUG) [2, 24]: 7171.31 and 7724.06 and 7316.31 | pKa [3]: 9.4

CCCCCC[C@@H]1NC[C@@H](O)[C@H](O)[C@H]1C(=O)O [Inhibitor 3, C6-hexyl UIFG]
diarrhea ([4]; CPT-11 30 mg per kg daily with inhibitor 3 5.8 µg orally twice per day): diarrhea was significantly suppressed; also recorded: significantly reduced diarrhea | diarrhea ([4]; inhibitor 3 only, 5.8 µg given orally twice per day): neither the negative control nor inhibitor 3 caused diarrhea | cytotoxicity [5]: No cytotoxicity was evident | cytotoxicity [6]: No cytotoxicity was evident | IC50 [1]: 18.6 nM | Ki [2]: 860 ± 180 nM | 1/v [2, 25]: 0.401 and 0.3673 and 0.39 | GUS activity (hydrolysis rate of MUG) [2, 25]: 3104.19 and 3385.21 and 3190.6 | 1/v [2, 26]: 0.256 and 0.2525 and 0.2536 | GUS activity (hydrolysis rate of MUG) [2, 26]: 4839.61 and 4906.13 and 4884.95 | 1/v [2, 27]: 0.1953 and 0.1691 and 0.1949 | GUS activity (hydrolysis rate of MUG) [2, 27]: 6330.06 and 7304.48 and 6344.76 | 1/v [2, 28]: 0.1452 and 0.1349 and 0.1522 | GUS activity (hydrolysis rate of MUG) [2, 28]: 8498.3 and 9149.25 and 8113.44 | 1/v [2, 29]: 0.5803 and 0.4953 and 0.5757 | GUS activity (hydrolysis rate of MUG) [2, 29]: 2157.49 and 2520.77 and 2174.43 | 1/v [2, 30]: 0.3424 and 0.3184 and 0.351 | GUS activity (hydrolysis rate of MUG) [2, 30]: 3628.61 and 3898.42 and 3540.08 | 1/v [2, 31]: 0.2292 and 0.221 and 0.234 | GUS activity (hydrolysis rate of MUG) [2, 31]: 5401.09 and 5599.95 and 5290.95 | 1/v [2, 32]: 0.17 and 0.1709 and 0.1804 | GUS activity (hydrolysis rate of MUG) [2, 32]: 7266.77 and 7229.36 and 6851.15 | 1/v [2, 33]: 0.7678 and 0.7232 and 0.846 | GUS activity (hydrolysis rate of MUG) [2, 33]: 1640.4 and 1739.08 and 1492.59 | 1/v [2, 34]: 0.3881 and 0.4343 and 0.4681 | GUS activity (hydrolysis rate of MUG) [2, 34]: 3205.84 and 2869.39 and 2664.86 | 1/v [2, 35]: 0.2765 and 0.2621 and 0.3029 | GUS activity (hydrolysis rate of MUG) [2, 35]: 4483.64 and 4728.12 and 4096.06 | 1/v [2, 36]: 0.1941 and 0.1876 and 0.2109 | GUS activity (hydrolysis rate of MUG) [2, 36]: 6369.22 and 6587.98 and 5864.23 | 1/v [2, 37]: 1.38 and 1.418 and 1.362 | GUS activity (hydrolysis rate of MUG) [2, 37]: 930.888 and 906.847 and 942.511 | 1/v [2, 38]: 0.7054 and 0.7651 and 0.7316 | GUS activity (hydrolysis rate of MUG) [2, 38]: 1782.13 and 1646.05 and 1719.56 | 1/v [2, 39]: 0.4164 and 0.4204 and 0.422 | GUS activity (hydrolysis rate of MUG) [2, 39]: 2991.08 and 2963 and 2951.69 | 1/v [2, 40]: 0.2731 and 0.2793 (2×) | GUS activity (hydrolysis rate of MUG) [2, 40]: 4539.61 and 4438.44 and 4439.48 | fluorescein fluorescence in the intestinal region (gut bacterial GUS activity) [7]: Reduced fluorescence | health of the epithelial layer and intestinal glandular structure (hematoxylin and eosin staining) [8]: neither compound affected the health of the epithelial layer or the intestinal glandular structure
